Measured values taken from patent US9119769B2, “Method for transforming pharmaceutical crystal forms” (The Curators of the University of Missouri, priority 2012, dated 2015).

Columns and labels:
[1] = cited from earlier work
[2] = Gas-induced (pressurized CO2) phase transformation of crystal forms, followed by XRPD; assay type: physicochemical
Excerpt: The invention teaches that simple pressurization of polymorphic forms of an organic solid, such as a pharmaceutical agent, can effect phase transitions among the forms with ease. More specifically, the inventive method comprises the step of subjecting an organic solid to a pressurized gas under low to moderate pressure at room temperature to a mildly elevated temperature for a period of time. The pressurized gas may be CO2, N2O, and CH4, and the pressure may start at 1 atm, whereas under slightly elevated pressure, the reaction temperature may be lowered, while the reaction time may be shortened.
Refer to FIG. 3, which includes schematic illustrations of the phase transformations between different forms of Clarithromycin 1. […] As expected, desolvated form I can be transformed to form II with greater ease under analogous conditions. […] Different gases including H2, He, CH4, N2, O2, air, and N2O have been studied, among which N2O has similar transformation effect as CO2.
Refer to FIG. 5, which compares the transformations under different gas pressures (350 psi vs. 100 psi) at different durations.
The invention has also studied Lansoprazole 2 transformations under CO2 but at higher pressure conditions.

[3] = 1:1 ethanol hydrate; cited from earlier work

CO[C@@H]1[C@@H](OC(N)=O)[C@@H](O)[C@H](Oc2ccc3c(O)c(NC(=O)c4ccc(O)c(CC=C(C)C)c4)c(=O)oc3c2C)OC1(C)C [novobiocin crystalline form, novobiocin]
absorption upon oral administration [1]: poorly absorbed

CC[C@H]1OC(=O)[C@H](C)[C@@H](O[C@H]2C[C@@](C)(OC)[C@@H](O)[C@H](C)O2)[C@H](C)[C@@H](O[C@@H]2O[C@H](C)C[C@H](N(C)C)[C@H]2O)[C@](C)(OC)C[C@@H](C)C(=O)[C@H](C)[C@@H](O)[C@]1(C)O [Clarithromycin form I, 6-O-methylerythro-mycin A]
time for transformation to form II ([2]; pressurization under 350 psi CO2): within just several minutes

CC[C@H]1OC(=O)[C@H](C)[C@@H](O[C@H]2C[C@@](C)(OC)[C@@H](O)[C@H](C)O2)[C@H](C)[C@@H](O[C@@H]2O[C@H](C)C[C@H](N(C)C)[C@H]2O)[C@](C)(OC)C[C@@H](C)C(=O)[C@H](C)[C@@H](O)[C@]1(C)O [Clarithromycin form 0, 6-O-methylerythro-mycin A]
time of exposure for complete transformation directly to form II ([2]; 23.8 atm (350 psi) CO2, room temperature): 4 h

CO[C@@H]1[C@@H](OC(N)=O)[C@@H](O)[C@H](Oc2ccc3c(O)c(NC(=O)c4ccc(O)c(CC=C(C)C)c4)c(=O)oc3c2C)OC1(C)C [novobiocin amorphous phase, novobiocin]
absorption upon oral administration [1]: readily absorbed

Cc1c(OCC(F)(F)F)ccnc1C[S+]([O-])c1nc2ccccc2[nH]1 (stereo not drawn) [Lansoprazole ethanol hydrate, Lansoprazole]
transformation of ethanol hydrate to solvent-free form ([2]; 500 psi CO2, room temperature): transformation to the more thermodynamically stable solvent-free form begins
chemical stability of the solvate [3]: prone to decomposition
